From PMC3302934 (Journal of Acquired Immune Deficiency Syndromes (1999), 2012)

How the values were obtained:
[1] = system: vascular endothelial growth factor (VEGF); test: Plasma VEGF by ELISA; assay type: in vivo, human
phospho-RPS6 (pRPS6) = test: IHC of KS biopsies for phospho-RPS6; assay type: in vivo, human
[2] = Rapamycin trough blood concentrations; assay type: in vivo, human
interleukin-6 (IL6) = test: Plasma IL6 by ELISA; assay type: in vivo, human; details: baseline median 8.22pg/ml
KSHV = KSHV plasma viral load by quantitative real-time PCR; assay type: in vivo, human
HIV [3] = details: in culture; cited from earlier work
[4] = system: cytochrome P450 3A4 (CYP3A4); details: cited from earlier work
P-glycoprotein = details: cited from earlier work
[5] = Safety and adverse event monitoring
HIV [6] = test: HIV viral load monitoring; assay type: in vivo, human; details: during rapamycin treatment with ART
[7] = system: KSHV latency associated nuclear antigen (LANA); test: IHC of KS biopsies for KSHV LANA; assay type: in vivo, human; details: KS biopsies on treatment vs baseline
CD4 T-lymphocyte counts = test: CD4+ T-lymphocyte count monitoring; assay type: in vivo, human; details: 6 study participants with follow-up tests; median baseline 826
Kaposi sarcoma [8] = details: HIV-uninfected renal allograft recipients; trough 6-10ng/ml; cited from earlier work
Kaposi sarcoma [9] = test: Clinical response of KS to rapamycin; assay type: in vivo, human
Ki-67 = test: IHC of KS biopsies for Ki-67; assay type: in vivo, human; details: KS biopsies on treatment vs baseline
[10] = system: phospho-Akt (Ser473) and phospho-Akt (T308); test: IHC of KS biopsies for phospho-Akt; assay type: in vivo, human; details: KS biopsies on treatment vs baseline

CO[C@H]1C[C@@H]2CC[C@@H](C)[C@@](O)(O2)C(=O)C(=O)N2CCCC[C@H]2C(=O)O[C@H]([C@H](C)C[C@@H]2CC[C@@H](O)[C@H](OC)C2)CC(=O)[C@H](C)/C=C(\C)[C@@H](O)[C@@H](OC)C(=O)[C@H](C)C[C@H](C)/C=C/C=C/C=C/1C [rapamycin]
changes in plasma VEGF concentrations during treatment [1]: No significant changes
overall changes from baseline in staining scores (pRPS6, phospho-Akt) (phospho-RPS6 (pRPS6); on-treatment KS biopsies, all patients, score 0 to 4): no significant changes
pRPS6 reactivity within KS tumor cells and overlying epithelium (phospho-RPS6 (pRPS6); subject #5, after 50 days on drug vs baseline): decreased pRPS6 reactivity
pRPS6 staining compared to baseline (phospho-RPS6 (pRPS6); three of four subjects biopsied at day 50 or later, all on PI/r-based ART): decreased pRPS6 staining
time for blood levels to decline to acceptable levels after stopping rapamycin ([2]; first patient, ritonavir-boosted lopinavir regimen, from 172ng/mL): three
concentration at 7 days ([2]; human, whole blood, oral, 2 mg): 123 ng/mL
concentration at 14 days ([2]; human, whole blood, oral, 2 mg): 172 ng/mL
Maximum Rapamycin Trough Level by LCMSMS ([2]; patient 001, Lopinavir/r ART, initial 2 mg daily): 172 ng/mL
Maximum Rapamycin Trough Level by LCMSMS ([2]; patient 002, Atazanavir/r ART, initial 0.3 mg biw): 64.4 ng/mL
Maximum Rapamycin Trough Level by LCMSMS ([2]; patient 003, Atazanavir/r ART, initial 0.3 mg biw): 16.8 ng/mL
Maximum Rapamycin Trough Level by LCMSMS ([2]; patient 004, Nevirapine ART, initial 4.9 mg daily): 13.1 ng/mL
Maximum Rapamycin Trough Level by LCMSMS ([2]; patient 005, Lopinavir/r ART, initial 0.4 mg biw): 19.2 ng/mL
Maximum Rapamycin Trough Level by LCMSMS ([2]; patient 006, Efavirenz ART, initial 4.5 mg daily): 7.4 ng/mL
Maximum Rapamycin Trough Level by LCMSMS ([2]; patient 007, Efavirenz ART, initial 3.7 mg daily): 11.9 ng/mL
changes in plasma IL6 concentrations during treatment (interleukin-6 (IL6)): No significant changes
changes in KSHV VL during rapamycin treatment (KSHV): no significant changes
median change in KSHV VL during treatment (KSHV; baseline median 214, P=0.156): -138.8 copies/ml
effect on HIV infectivity and transcription (HIV [3]): inhibits HIV infectivity and transcription in culture
substrate status for CYP3A4 [4]: substrate
substrate status for P-glycoprotein (P-glycoprotein): substrate
grade of most adverse events ([5]; all seven patients experienced adverse events): most were grade 1
serious adverse event ([5]; patient #4, Nevirapine ART): extensive grade 3 superficial vein thrombus requiring anticoagulation, considered possibly related to rapamycin
infectious adverse events ([5]; patient #5, pneumonia and dermatomal Herpes zoster): 2 separate grade 2 infectious episodes without neutropenia
infectious adverse events ([5]; patient #6, without neutropenia, resolved without treatment): grade 2 upper respiratory infection
overall tolerability ([5]; seven HIV-infected KS patients on ART, trough target 5-10 ng/mL): generally well tolerated
changes in HIV VL (HIV [6]): no consistent changes
changes in LANA staining [7]: no significant changes
CD4 counts during treatment (CD4 T-lymphocyte counts): > 400 cells/μL
KS outcome after change from cyclosporin A-based regimen to rapamycin (Kaposi sarcoma [8]): KS regressed
number of patients with stable disease as best response (Kaposi sarcoma [9]; of seven): Three
number of patients with partial KS response (Kaposi sarcoma [9]; of seven, all receiving PI/r regimens): Three
Best Response of KS to Rapamycin (Kaposi sarcoma [9]; patient 001, Lopinavir/r ART, maintenance 0.2 mg biw): Partial
Best Response of KS to Rapamycin (Kaposi sarcoma [9]; patient 002, Atazanavir/r ART, maintenance 0.2 mg biw): Partial
Best Response of KS to Rapamycin (Kaposi sarcoma [9]; patient 003, Atazanavir/r ART, maintenance 0.3 mg tiw): Stable
Best Response of KS to Rapamycin (Kaposi sarcoma [9]; patient 004, Nevirapine ART, maintenance 2.8 mg daily): Progression
Best Response of KS to Rapamycin (Kaposi sarcoma [9]; patient 005, Lopinavir/r ART, maintenance 0.1 mg biw): Partial
Best Response of KS to Rapamycin (Kaposi sarcoma [9]; patient 006, Efavirenz ART, maintenance 6.7 mg daily): Stable
Best Response of KS to Rapamycin (Kaposi sarcoma [9]; patient 007, Efavirenz ART, maintenance 2.3 mg daily): Stable
response duration (Kaposi sarcoma [9]; three responding patients): 43 to 50 weeks
time to partial KS response (Kaposi sarcoma [9]; three responding patients): 3 to 9 weeks
changes in Ki-67 staining (Ki-67): no significant changes
changes in Akt phosphorylation at T308 or Ser473 [10]: no significant changes
